Assay results published in ChEMBL document CHEMBL1141299, “Hologram QSAR model for the prediction of human oral bioavailability” (Bioorg Med Chem, 2007).

Experiment: Oral bioavailability in human
Conditions: in vivo

SMILES	bioavailability [%]
CC(C)N(CC[C@](C(N)=O)(c1ccccc1)c1ccccn1)C(C)C [(S)-DISOPYRAMIDE]	83
COc1c(N2CCN[C@@H](C)C2)c(F)cc2c(=O)c(C(=O)O)cn(C3CC3)c12 [(S)-GATIFLOXACIN]	96
O=C1Nc2ccc(Cl)cc2C(c2ccccc2Cl)=N[C@H]1O [(S)-LORAZEPAM]	93
CN1C(=O)[C@H](O)N=C(c2ccccc2Cl)c2cc(Cl)ccc21 [(S)-LORMETAZEPAM]	75
CC[C@]1(c2ccccc2)C(=O)NC(=O)N(C)C1=O [(S)-METHYLPHENOBARBITAL]	73
COc1ccc([C@@H](CN(C)C)C2(O)CCCCC2)cc1 [(S)-VENLAFAXINE]	45
CC(C)C[C@H]1C(=O)N2CCC[C@H]2[C@]2(O)O[C@](NC(=O)[C@@H]3C=C4c5cccc6[nH]c(Br)c(c56)C[C@H]4N(C)C3)(C(C)C)C(=O)N12 [BROMOCRIPTINE]	4.5
O=C(O)CCCc1ccc(N(CCCl)CCCl)cc1 [CHLORAMBUCIL]	87
CN/C(=N/CCSCc1nc[nH]c1C)NC#N [CIMETIDINE]	60
C[N+]1(CC2CC2)[C@@H]2C[C@@H](OC(=O)[C@H](CO)c3ccccc3)C[C@H]1[C@@H]1O[C@@H]12.[Br-] (stereo not given in full) [CIMETROPIUM BROMIDE]	2
O=C1CN=C(c2ccccc2Cl)c2cc([N+](=O)[O-])ccc2N1 [CLONAZEPAM]	90
CN1CCN(C2=Nc3cc(Cl)ccc3Nc3ccccc32)CC1 [CLOZAPINE]	55
COc1ccc2c3c1O[C@H]1[C@@H](O)C=C[C@H]4[C@@H](C2)N(C)CC[C@@]341 [CODEINE]	55
O=P1(N(CCCl)CCCl)NCCCO1 (stereo not given) [CYCLOPHOSPHAMIDE ANHYDROUS]	74
CCN[C@@H](C)Cc1cccc(C(F)(F)F)c1 [DEXFENFLURAMINE]	89

Same assay, conditions: in vivo, F

SMILES	bioavailability [%]
CC(C)(C)NC[C@@H](O)c1ccc(O)c(CO)c1 [(S)-ALBUTEROL]	71
CCc1cccc2cc([C@@H](O)CNC(C)(C)C)oc12 [(S)-BUFURALOL]	46
CCN1C[C@@H](CCN2CCOCC2)C(c2ccccc2)(c2ccccc2)C1=O [(S)-DOXAPRAM]	61
CCOC(=O)C1=C(C)NC(C)=C(C(=O)OC)[C@@H]1c1cccc(Cl)c1Cl [(S)-FELODIPINE]	15
COC(=O)C1=C(C)NC(C)=C(C(=O)OC(C)C)[C@H]1c1cccc2nonc12 [(S)-ISRADIPINE]	19.5
Cc1cc2c(OC[C@@H](O)CNC(C)C)cccc2[nH]1 [(S)-MEPINDOLOL]	82
Cc1cccc(C)c1OC[C@H](C)N [(S)-MEXILETINE]	87
COc1ccc(OC)c([C@H](O)CNC(=O)CN)c1 [(S)-MIDODRINE]	93
CC(C)[C@H]1CC[C@H](C(=O)N[C@@H](Cc2ccccc2)C(=O)O)CC1 [(S)-NATEGLINIDE]	73
CCOC(=O)C1=C(C)NC(C)=C(C(=O)OC)[C@@H]1c1cccc([N+](=O)[O-])c1 [(S)-NITRENDIPINE]	16
Cc1nccn1C[C@@H]1CCc2c(c3ccccc3n2C)C1=O [(S)-ONDANSETRON]	62
O[C@](CCN1CCCC1)(c1ccccc1)C1CCCCC1 [(S)-PROCYCLIDINE]	75
C[C@@H](CN1c2ccccc2Sc2ccccc21)N(C)C [(S)-PROMETHAZINE]	25
C[C@H](O)Cn1cnc2c1c(=O)n(C)c(=O)n2C [(S)-PROXYPHYLLINE]	100
C[C@H](C(=O)O)c1ccc(C(=O)c2cccs2)cc1 [(S)-SUPROFEN]	92
Cc1cccc(OC[C@@H](O)CNC(C)C)c1 [(S)-TOLIPROLOL]	90
CC(C)[C@H](N)C(=O)OC[C@H](CO)OCn1cnc2c(=O)nc(N)[nH]c21 [(S)-VALGANCICLOVIR]	59.4
CC(=O)Nc1ccc(O)cc1 [ACETAMINOPHEN]	88
CN(C)CCc1c[nH]c2ccc(CS(=O)(=O)N3CCCC3)cc12 [ALMOTRIPTAN]	70
Cc1[nH]cnc1CN1CCc2c(c3ccccc3n2C)C1=O [ALOSETRON]	55
CC(C)(C#N)c1cc(Cn2cncn2)cc(C(C)(C)C#N)c1 [ANASTROZOLE]	84
CC(=O)Oc1ccccc1C(=O)O [ASPIRIN]	68
CNCC[C@@H](Oc1ccccc1C)c1ccccc1 [ATOMOXETINE]	63

SMILES	bioavailability [%]
O=C1C(O)=C([C@H]2CC[C@H](c3ccc(Cl)cc3)CC2)C(=O)c2ccccc21 [ATOVAQUONE]	23
COc1ccccc1Oc1c(NS(=O)(=O)c2ccc(C(C)(C)C)cc2)nc(-c2ncccn2)nc1OCCO [BOSENTAN]	50
CCCC1O[C@@H]2C[C@H]3[C@@H]4CCC5=CC(=O)C=C[C@]5(C)[C@H]4[C@@H](O)C[C@]3(C)[C@]2(C(=O)CO)O1 (stereo not given in full) [BUDESONIDE]	11
CCCCNc1cc(C(=O)O)cc(S(N)(=O)=O)c1Oc1ccccc1 [BUMETANIDE]	81
CS(=O)(=O)OCCCCOS(C)(=O)=O [BUSULFAN]	80
Cn1c(=O)c2c(ncn2C)n(C)c1=O [CAFFEINE]	100
N[C@@H](C(=O)N[C@@H]1C(=O)N2C(C(=O)O)=C(Cl)CS[C@H]12)c1ccccc1 [CEFACLOR ANHYDROUS]	90
Cc1nnc(SCC2=C(C(=O)O)N3C(=O)[C@@H](NC(=O)Cn4cnnn4)[C@H]3SC2)s1 [CEFAZOLIN]	90
CCCCCCCCCCCCCCCC(=O)OC[C@@H](NC(=O)C(Cl)Cl)[C@H](O)c1ccc([N+](=O)[O-])cc1 [CHLORAMPHENICOL PALMITATE]	80
O=C(N[C@H](CO)[C@H](O)c1ccc([N+](=O)[O-])cc1)C(Cl)Cl [CHLORAMPHENICOL]	69
CN(C)[C@@H]1C(O)=C(C(N)=O)C(=O)[C@@]2(O)C(O)=C3C(=O)c4c(O)ccc(Cl)c4[C@@](C)(O)[C@H]3C[C@@H]12 [CHLORTETRACYCLINE]	27.5
CC[C@H]1OC(=O)[C@H](C)[C@@H](O[C@H]2C[C@@](C)(OC)[C@@H](O)[C@H](C)O2)[C@H](C)[C@@H](O[C@@H]2O[C@H](C)C[C@H](N(C)C)[C@H]2O)[C@](C)(OC)C[C@@H](C)C(=O)[C@H](C)[C@@H](O)[C@]1(C)O [CLARITHROMYCIN]	50
O=C(O)[C@H]1/C(=C/CO)O[C@@H]2CC(=O)N21 [CLAVULANIC ACID]	75
CCOC(=O)C(C)(C)Oc1ccc(Cl)cc1 [CLOFIBRATE]	95
Clc1cccc(Cl)c1N=C1NCCN1 [CLONIDINE]	60
Cc1onc(-c2ccccc2Cl)c1C(=O)N[C@@H]1C(=O)N2[C@@H]1SC(C)(C)[C@@H]2C(=O)O [CLOXACILLIN]	37
Nc1ccc(S(=O)(=O)c2ccc(N)cc2)cc1 [DAPSONE]	93
CC(C)Nc1cccnc1N1CCN(C(=O)c2cc3cc(NS(C)(=O)=O)ccc3[nH]2)CC1 [DELAVIRDINE]	96
CC(C)Cc1ccc([C@H](C)C(=O)O)cc1 [DEXIBUPROFEN]	80
CC(C)NC[C@@H](O)c1ccc(NS(C)(=O)=O)cc1 [DEXSOTALOL]	60
C[C@@H]1COc2c(N3CCN(C)CC3)c(F)cc3c(=O)c(C(=O)O)cn1c23 [DEXTROFLOXACINE]	97.5
O=C(O)c1cc(-c2ccc(F)cc2F)ccc1O [DIFLUNISAL]	100
